In patent publication US20240190876A1, “Tricyclic Urea Compounds As JAK2 V617F Inhibitors” (Incyte Corporation, priority 2022, published 2024):

How the values were obtained:
[1] = In Vitro Intrinsic Clearance; type: in vitro ADME; settings: human liver microsomes, 1 μM compound, NADPH, scaled to human
Protocol: For in vitro metabolic stability experiments, test compounds were incubated with human liver microsomes at 37° C. The incubation mixture contained test compounds (1 μM), NADPH (2 mM), and human liver microsomes ([…]) in 100 mM phosphate buffer (pH 7.4). The mixture was pre-incubated for 2 min at 37° C. before the addition of NADPH. Reactions were commenced upon the addition of NADPH and quenched with ice-cold methanol at 0, 10, 20, and 30 min. Terminated incubation mixtures were analyzed using LC-MS/MS system. The analytical system consisted of a Shimadzu LC-30AD binary pump system and SIL-30AC autosampler (Shimadzu Scientific Instruments, Columbia, MD) coupled with a Sciex Triple Quad 6500+mass spectrometer from Applied Biosystems (Foster City, CA). […] Mobile phase A consisted of 0.1% formic acid in water, and mobile phase B consisted of 0.1% formic acid in acetonirile. The total LC-MS/MS runtime was 2.75 minutes with a flow rate of 0.75 mL/min. Peak area integrations and peak area ratio calculations were performed using Analyst software (version 1.6.3) from Applied Biosystems.
The in vitro intrinsic clearance, CLint, in vitro, was calculated from the t1/2 of test compound disappearance as CLint, in vitro=(0.693/t1/2)×(1/Cprotein), where Cprotein is the protein concentration during the incubation, and t1/2 was determined by the slope (k) of the log-linear regression analysis of the concentration versus time profiles; thus, t1/2ln2/k. The CLint, in vitro values were scaled to the in vivo values for human by using physiologically based scaling factors, hepatic microsomal protein concentrations (45 mg protein/g liver), and liver weights (21 g/kg body weight). The equation CLint=CLint, in vitro×(mg protein/g liver weight)×(g liver weight/kg body weight) was used. The in vivo hepatic clearance (CLH) was then calculated by using CLint and hepatic blood flow, Q (20 mL·min^−1kg^−1 in humans) in the well-stirred liver model disregarding all binding from CLH (Q×CLint)/(Q+CLint). The hepatic extraction ratio was calculated as CLH divided by Q.

[2] = In Vivo Pharmacokinetics, rat oral dosing; parameters: species or system Sprague Dawley rats; settings: male, Sprague Dawley, oral gavage 3.0 mg/kg, plasma, cassette dosing
Protocol: Test compounds were administered to male Sprague Dawley rats or male and female Cynomolgus monkeys intravenously or via oral gavage. For intravenous (IV) dosing, test compounds were dosed at 1 mg/kg using a formulation of 10% dimethylacetamide (DMAC), 10% propylene glycol (PG) in acidified saline via IV bolus for rat or 10 min IV infusion for monkey. For oral (PO) dosing, test compounds were dosed at 3.0 mg/kg using 5% DMAC in 0.5% methylcellulose in citrate buffer (pH -2.5). Blood samples were collected at predose and various time points up to 24 hours postdose. All blood samples were collected using EDTA as the anticoagulant and centrifuged to obtain plasma samples. The plasma concentrations of test compounds were determined by LC-MS/MS methods. The measured plasma concentrations were used to calculate PK parameters by standard noncompartmental methods using Phoenix© WinNonlin software program (version 8.0, Pharsight Corporation) or similar software. In rats and monkeys, cassette dosing of test compounds were conducted to obtain preliminary PK parameters. In vivo pharmacokinetic experiments with male beagle dogs may be performed under the conditions described above.

Row | Structure (SMILES) | h-IntCL [1] | AUC [2]
1 | COc1ccc(-c2c(-c3cn(C)nc3OC)[nH]c3ncc4c(c23)n([C@H]2CC[C@@](C)(NC(=O)C3CC3)CC2)c(=O)n4C)cc1 [Example 1, N-((1s,4s)-4-(7-(3-Methoxy-1-methyl-1H-pyrazol-4-yl)-8-(4-methoxyphenyl)-3-methyl-2-oxo-3,6-dihydroimidazo[4,5-d]pyrrolo[2,3-b]pyridin-1(2H)-yl)-1-methylcyclohexyl)cyclopropanecarboxamide] | ‡ (‡ refers to h-IntCL of <0.7 L/h/kg) | > 1.5 µM·h
2 | [2H]C([2H])([2H])n1cc(-c2[nH]c3ncc4c(c3c2-c2ccc3c(cnn3C([2H])([2H])[2H])c2)n([C@H]2CC[C@@](C)(NC(=O)C3CC3)CC2)c(=O)n4C)c(F)n1 [Example 4, N-((1s,4s)-4-(7-(3-fluoro-1-(methyl-d3)-1H-pyrazol-4-yl)-3-methyl-8-(1-(methyl-d3)-1H-indazol-5-yl)-2-oxo-3,6-dihydroimidazo[4,5-d]pyrrolo[2,3-b]pyridin-1(2H)-yl)-1-methylcyclohexyl)cyclopropanecarboxamide] | ‡ (‡ refers to h-IntCL of <0.7 L/h/kg) | ≤ 0.5 µM·h
3 | [2H]C([2H])([2H])n1cc(-c2[nH]c3ncc4c(c3c2-c2ccc(OC)cc2)n([C@H]2CC[C@@](C)(NC(=O)C3CC3)CC2)c(=O)n4C)c(F)n1 [Example 3, N-((1s,4s)-4-(7-(3-fluoro-1-(methyl-d3)-1H-pyrazol-4-yl)-8-(4-methoxyphenyl)-3-methyl-2-oxo-3,6-dihydroimidazo[4,5-d]pyrrolo[2,3-b]pyridin-1(2H)-yl)-1-methylcyclohexyl)cyclopropanecarboxamide] | ‡ ‡ (‡ ‡ refers to h-IntCL of ≥0.7 L/h/kg to ≤1 L/h/kg) | > 1.5 µM·h
4 | [2H]C([2H])([2H])n1cc(-c2[nH]c3ncc4c(c3c2-c2ccc(OC)cc2)n([C@H]2CC[C@@](C)(NC(=O)[C@H]3C[C@H]3F)CC2)c(=O)n4C([2H])([2H])[2H])c(F)n1 [Example 6, (1R,2R)-2-Fluoro-N-((1s,4S)-4-(7-(3-fluoro-1-(methyl-d3)-1H-pyrazol-4-yl)-8-(4-methoxyphenyl)-3-(methyl-d3)-2-oxo-3,6-dihydroimidazo[4,5-d]pyrrolo[2,3-b]pyridin-1(2H)-yl)-1-methylcyclohexyl)cyclopropane-1-carboxamide] | ‡ (‡ refers to h-IntCL of <0.7 L/h/kg) | > 1.5 µM·h
5 | [2H]C([2H])([2H])n1ncc2cc(-c3c(-c4cn(CC)nc4F)[nH]c4ncc5c(c34)n([C@H]3CC[C@@](C)(NC(=O)C4CC4)CC3)c(=O)n5C)ccc21 [Example 5, N-((1s,4s)-4-(7-(1-Ethyl-3-fluoro-1H-pyrazol-4-yl)-3-methyl-8-(1-(methyl-d3)-1H-indazol-5-yl)-2-oxo-3,6-dihydroimidazo[4,5-d]pyrrolo[2,3-b]pyridin-1(2H)-yl)-1-methylcyclohexyl)cyclopropanecarboxamide] | ‡ (‡ refers to h-IntCL of <0.7 L/h/kg) | > 1.5 µM·h
6 | [2H]C([2H])([2H])n1ncc2cc(-c3c(-c4cn(C)nc4OC)[nH]c4ncc5c(c34)n([C@H]3CC[C@@](C)(NC(=O)C4CC4)CC3)c(=O)n5C)ccc21 [Example 2, N-((1s,4s)-4-(7-(3-Methoxy-1-methyl-1H-pyrazol-4-yl)-3-methyl-8-(1-(methyl-d3)-1H-indazol-5-yl)-2-oxo-3,6-dihydroimidazo[4,5-d]pyrrolo[2,3-b]pyridin-1(2H)-yl)-1-methylcyclohexyl)cyclopropanecarboxamide] | ‡ (‡ refers to h-IntCL of <0.7 L/h/kg) | 0.5 to 1.5 µM·h
